This assay relates to BDF1 mice, P388 leukemia ip, median survival T/C. The experiment in a line: NCI In Vivo Anticancer Drug Screen. Data for tumor model P388 Leukemia (intraperitoneal) in B6D2F1 (BDF1) mice. Conditions: endpoint: median survival time, higher = longer survival. On the procedure: The antitumor activity of compounds was measured in mice bearing transplantable tumors. Survival or tumor size were measured and the results are expressed as the measurement made in the treated group (T) divided by the measurement made in the vehicle treated control group (C). The tumor model used in this assay is P388 Leukemia (intraperitoneal) in B6D2F1 (BDF1) mice

The mark [1] stands for this setting: dose: 200.0 mg/kg/injection, schedule: Q04DX003 (ip), vehicle: Klucel (hydroxypropylcellulose) (HPC).
The mark [2] stands for this setting: dose: 100.0 mg/kg/injection, schedule: Q01DX009 (ip), vehicle: saline sonified.
[3] abbreviates: dose: 25.0 mg/kg/injection, schedule: Q01DX009 (ip), vehicle: saline with Tween-80.
Where [4] appears, read: dose: 50.0 mg/kg/injection, schedule: Q01DX009 (ip), vehicle: saline with Tween-80.
Setting [5] is: dose: 6.25 mg/kg/injection, schedule: Q01DX009 (ip), vehicle: saline.
The mark [6] stands for this setting: dose: 12.5 mg/kg/injection, schedule: Q01DX009 (ip), vehicle: saline.
[7] abbreviates: dose: 100.0 mg/kg/injection, schedule: Q01DX009 (ip), vehicle: saline with Tween-80.
The mark [8] stands for this setting: dose: 200.0 mg/kg/injection, schedule: Q01DX009 (ip), vehicle: saline with Tween-80.
Setting [9] is: dose: 400.0 mg/kg/injection, schedule: Q01DX009 (ip), vehicle: saline with Tween-80.

T/C data for 19 compounds are collected here from PubChem BioAssay AID328 (DTP/NCI, 2004).

SMILES strings stand for the structures. Several values for one entry are separate records, joined by “and”; a condition that tells them apart may be missing. Equal values may be shown once. Toxic doses and inconclusive results are not listed.

Regarding `C=C(Cl)CSCC`, the T/C by setting is: (dose: 6.25 mg/kg/injection, schedule: Q04DX003 (ip), vehicle: alcohol) 100 % of control; (dose: 12.5 mg/kg/injection, schedule: Q01DX009 (ip), vehicle: acetone) 118 % of control; (dose: 12.5 mg/kg/injection, schedule: Q04DX003 (ip), vehicle: alcohol) 105 % of control; (dose: 25.0 mg/kg/injection, schedule: Q01DX009 (ip), vehicle: acetone) 113 % of control; (dose: 25.0 mg/kg/injection, schedule: Q04DX003 (ip), vehicle: alcohol) 100 % of control; (dose: 45.0 mg/kg/injection, schedule: Q01DX001 (ip), vehicle: saline) 109 % of control. Moreover, the T/C is, setting by setting: (dose: 90.0 mg/kg/injection, schedule: Q01DX001 (ip), vehicle: saline) 109 % of control; (dose: 120.0 mg/kg/injection, schedule: Q04DX003 (ip), vehicle: saline) 109 % of control; (dose: 180.0 mg/kg/injection, schedule: Q04DX003 (ip), vehicle: saline) 95 % of control; (dose: 270.0 mg/kg/injection, schedule: Q04DX003 (ip), vehicle: saline) 86 % of control.

`Cc1ccc(OC/C=C/CS(=O)(=O)c2ccc(Cl)cc2)cc1`: the T/C (dose: 100.0 mg/kg/injection, schedule: Q04DX003 (ip), vehicle: Klucel (hydroxypropylcellulose) (HPC)) was 95 % of control; the T/C under setting [1] is 95 % of control; the T/C (dose: 400.0 mg/kg/injection, schedule: Q04DX003 (ip), vehicle: Klucel (hydroxypropylcellulose) (HPC)) is 104 % of control.

Turning to `O=C(c1ccccc1)C(Cl)C(=O)c1ccccc1`, the T/C is 108 % of control (dose: 50.0 mg/kg/injection, schedule: Q01DX001 (ip), vehicle: saline with Tween-80); 120 % of control (dose: 65.0 mg/kg/injection, schedule: Q01DX001 (ip), vehicle: saline with Tween-80); 101 % of control (dose: 150.0 mg/kg/injection, schedule: Q01DX001 (ip), vehicle: saline with Tween-80); 105 % of control (dose: 200.0 mg/kg/injection, schedule: Q01DX001 (ip), vehicle: saline with Tween-80).

On to `OCc1cccnc1`, for which the T/C runs as follows: (dose: 50.0 mg/kg/injection, schedule: Q01DX009 (ip), vehicle: saline) 93 % of control; (dose: 100.0 mg/kg/injection, schedule: Q01DX009 (ip), vehicle: saline) 100 % of control; (dose: 200.0 mg/kg/injection, schedule: Q01DX009 (ip), vehicle: saline) 100 % of control; (dose: 400.0 mg/kg/injection, schedule: Q01DX009 (ip), vehicle: saline) 108 % of control.

As for `C=C1C(=O)OC2/C=C(\C)CC(O)/C=C(/C)CC(OC(=O)C3(C)OC3C)C12` (stereo unspecified), the T/C is, setting by setting: (dose: 100.0 mg/kg/injection, schedule: Q04DX002 (ip), vehicle: Klucel (hydroxypropylcellulose) (HPC)) 111 % of control; (dose: 200.0 mg/kg/injection, schedule: Q04DX002 (ip), vehicle: Klucel (hydroxypropylcellulose) (HPC)) 113 % of control.

On to `C(=N\OCCc1ccccc1)/c1cccnc1`, for which the T/C reads like this: under setting [2], 100 % of control; (dose: 200.0 mg/kg/injection, schedule: Q01DX009 (ip), vehicle: saline sonified) 110 % of control.

Turning to `Cc1cccc(C)c1N=CNc1c(C)cccc1C.[Cu+2]`, the T/C by setting is: under setting [3], 103 % of control; under setting [4], 86 % of control.

In the case of `CCCCCCOc1ccc(OCCCC[N+]2(CC)CCCCC2)cc1`, the T/C is, setting by setting: under setting [5], 103 % of control; under setting [6], 110 % of control.

For the compound `N#CCCN(C(=O)Nc1ccc(Cl)c(Cl)c1)C1CCCCC1`, the T/C was 124 % of control under setting [4], 104 % of control under setting [7], 94 % of control under setting [8] and 97 % of control under setting [9].

For the compound `CC(=O)SCCC(=O)O`, the T/C by setting is: (dose: 6.25 mg/kg/injection, schedule: Q01DX009 (ip), vehicle: saline with Tween-80) 109 % of control; (dose: 6.25 mg/kg/injection, schedule: Q04DX003 (ip), vehicle: saline with Tween-80) 100 % of control; (dose: 12.5 mg/kg/injection, schedule: Q01DX009 (ip), vehicle: saline with Tween-80) 100 % of control; (dose: 12.5 mg/kg/injection, schedule: Q04DX003 (ip), vehicle: saline with Tween-80) 95 % of control; under setting [3], 109 % of control; (dose: 25.0 mg/kg/injection, schedule: Q04DX003 (ip), vehicle: saline with Tween-80) 100 % of control.

Regarding `Nc1nc(-c2cccc3ccccc23)cc2ccccc12`, the T/C was 115 % of control under setting [3]; 119 % of control under setting [4]; 151 % of control and 182 % of control under setting [7]; 151 % of control under setting [8].

In the case of `CO/C=C1\Cc2cc(OC)c(OC)cc2C1=O`, the T/C under setting [7] was 90 % of control, the T/C under setting [8] was 100 % of control and the T/C under setting [9] is 109 % of control.

Consider `CCC1CN1CC1CO1` (stereo unspecified), for which the T/C was 110 % of control (dose: 8.3 mg/kg/injection, schedule: Q04DX003 (ip), vehicle: Klucel (hydroxypropylcellulose) (HPC)); 120 % of control (dose: 12.0 mg/kg/injection, schedule: Q04DX003 (ip), vehicle: Klucel (hydroxypropylcellulose) (HPC)); 119 % of control (dose: 29.0 mg/kg/injection, schedule: Q04DX003 (ip), vehicle: Klucel (hydroxypropylcellulose) (HPC)); 204 % of control under setting [1]; 190 % of control and 218 % of control (dose: 300.0 mg/kg/injection, schedule: Q04DX003 (ip), vehicle: Klucel (hydroxypropylcellulose) (HPC)).

In the case of `Cc1[nH]c2cc(Br)ccc2c1/C=N/NC(N)=S`, the T/C runs as follows: (dose: 25.0 mg/kg/injection, schedule: Q01DX001 (ip), vehicle: Klucel (hydroxypropylcellulose) (HPC)) 107 % of control; (dose: 50.0 mg/kg/injection, schedule: Q01DX001 (ip), vehicle: Klucel (hydroxypropylcellulose) (HPC)) 102 % of control; (dose: 100.0 mg/kg/injection, schedule: Q01DX001 (ip), vehicle: Klucel (hydroxypropylcellulose) (HPC)) 103 % of control.

For `CCC[CH2][Sn]1([CH2]CCC)[O]OC(C)(CC)[O]1` (stereo unspecified), the T/C was 108 % of control (dose: 0.69 mg/kg/injection, schedule: Q01DX009 (ip), vehicle: saline with Tween-80); 104 % of control (dose: 1.04 mg/kg/injection, schedule: Q01DX009 (ip), vehicle: saline with Tween-80); 120 % of control (dose: 1.56 mg/kg/injection, schedule: Q01DX009 (ip), vehicle: saline with Tween-80); 104 % of control (dose: 2.35 mg/kg/injection, schedule: Q01DX009 (ip), vehicle: saline with Tween-80).

For `O=[N+]([O-])/C=C/c1ccc2ccccc2c1`, the T/C is 116 % of control (dose: 88.0 mg/kg/injection, schedule: Q04DX003 (ip), vehicle: saline sonified); 100 % of control under setting [2]; 120 % of control (dose: 100.0 mg/kg/injection, schedule: Q04DX003 (ip), vehicle: saline with Tween-80); 116 % of control (dose: 132.0 mg/kg/injection, schedule: Q04DX003 (ip), vehicle: saline sonified); 111 % of control (dose: 200.0 mg/kg/injection, schedule: Q04DX003 (ip), vehicle: saline sonified); 116 % of control (dose: 300.0 mg/kg/injection, schedule: Q04DX003 (ip), vehicle: saline sonified). Where the note is “dose: 400.0 mg/kg/injection, schedule: Q04DX003 (ip), vehicle: saline with Tween-80”, the T/C was 90 % of control.

Regarding `Cc1c(O)ccc2c1CCCC2`, the T/C is, setting by setting: (dose: 50.0 mg/kg/injection, schedule: Q01DX001 (ip), vehicle: saline sonified) 90 % of control; (dose: 100.0 mg/kg/injection, schedule: Q01DX001 (ip), vehicle: saline sonified) 104 % of control; (dose: 200.0 mg/kg/injection, schedule: Q01DX001 (ip), vehicle: saline sonified) 100 % of control.

With `Cc1c2c(O)c(O)c(O)cc2c[n+]2ccccc12`, the T/C runs as follows: under setting [5], 100 % of control; under setting [6], 106 % of control; (dose: 25.0 mg/kg/injection, schedule: Q01DX009 (ip), vehicle: saline) 123 % of control.

In the case of `COc1cc2c(cc1OC)C1CCc3cc4c(cc3C1N=C2)OCO4` (stereo unspecified), the T/C by setting is: (dose: 20.0 mg/kg/injection, schedule: Q01DX009 (ip), vehicle: saline) 100 % of control; (dose: 40.0 mg/kg/injection, schedule: Q01DX009 (ip), vehicle: saline) 105 % of control; (dose: 80.0 mg/kg/injection, schedule: Q01DX009 (ip), vehicle: saline) 105 % of control; (dose: 120.0 mg/kg/injection, schedule: Q01DX009 (ip), vehicle: saline) 105 % of control; (dose: 240.0 mg/kg/injection, schedule: Q01DX009 (ip), vehicle: saline) 100 % of control.
